2 molecules from patent US20060234987A1, “Neuroprotective benzo 1 3 oxathiol 2 ones” (priority 2003, published 2006) can be followed below.

What all share (assay type): biochemical
Holding throughout (conditions): Table 6

Assay [1] addresses T1, CD45 (Homo sapiens, UniProt P08575).
T1 construct: purchased BIOMOL Research Laboratories, Inc
T1 sequence (P08575 26-1306): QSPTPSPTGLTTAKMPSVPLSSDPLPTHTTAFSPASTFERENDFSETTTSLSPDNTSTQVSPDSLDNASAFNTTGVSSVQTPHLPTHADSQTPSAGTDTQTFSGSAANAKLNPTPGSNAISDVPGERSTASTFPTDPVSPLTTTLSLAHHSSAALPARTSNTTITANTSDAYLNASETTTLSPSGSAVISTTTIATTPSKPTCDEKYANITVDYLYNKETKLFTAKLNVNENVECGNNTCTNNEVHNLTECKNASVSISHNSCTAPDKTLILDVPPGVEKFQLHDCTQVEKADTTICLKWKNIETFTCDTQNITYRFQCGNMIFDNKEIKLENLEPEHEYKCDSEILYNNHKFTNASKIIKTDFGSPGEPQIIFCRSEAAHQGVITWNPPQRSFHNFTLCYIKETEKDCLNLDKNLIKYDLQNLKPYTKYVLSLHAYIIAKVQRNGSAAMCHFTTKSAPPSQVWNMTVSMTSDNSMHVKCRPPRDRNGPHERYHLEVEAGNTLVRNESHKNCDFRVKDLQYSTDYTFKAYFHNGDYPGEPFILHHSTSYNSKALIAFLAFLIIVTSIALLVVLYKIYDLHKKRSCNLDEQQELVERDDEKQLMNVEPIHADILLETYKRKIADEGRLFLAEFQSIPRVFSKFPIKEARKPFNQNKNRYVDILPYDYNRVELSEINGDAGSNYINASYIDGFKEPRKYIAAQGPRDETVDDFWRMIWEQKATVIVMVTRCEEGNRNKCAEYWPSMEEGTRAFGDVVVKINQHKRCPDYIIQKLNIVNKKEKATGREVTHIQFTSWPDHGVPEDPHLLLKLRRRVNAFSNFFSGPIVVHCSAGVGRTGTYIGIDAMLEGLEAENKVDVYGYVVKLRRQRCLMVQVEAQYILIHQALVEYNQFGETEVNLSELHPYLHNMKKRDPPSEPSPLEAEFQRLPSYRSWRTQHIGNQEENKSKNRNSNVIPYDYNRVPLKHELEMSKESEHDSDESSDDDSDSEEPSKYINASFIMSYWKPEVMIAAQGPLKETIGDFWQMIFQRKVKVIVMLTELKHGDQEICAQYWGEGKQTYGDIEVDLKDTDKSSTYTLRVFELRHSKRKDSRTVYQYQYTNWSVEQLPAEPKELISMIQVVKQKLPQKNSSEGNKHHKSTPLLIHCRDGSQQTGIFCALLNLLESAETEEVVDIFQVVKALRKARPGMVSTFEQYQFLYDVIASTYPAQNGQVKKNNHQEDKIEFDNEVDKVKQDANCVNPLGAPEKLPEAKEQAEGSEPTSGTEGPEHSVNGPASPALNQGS
Kind of assay: CD45 (PTPase) Assay. The method, then: D) CD45 (PTPase) Assay: Inhibition of the phosphatase CD45 was performed according to reported procedures (Pacitti, A. et al Biochem. Biophys. Acta, 1994, 1222, 277; Fisher, D. K. and Higgins, T. J. Pharmacol. Res., 1994, 11, 759). CD45 was purchased from BIOMOL Research Laboratories, Inc.

For assay [2], the target named is T2, SHP2 (Homo sapiens, UniProt Q06124).
T2 construct: made in house; host or cells: adenovirus vector
T2 sequence (Q06124 1-593): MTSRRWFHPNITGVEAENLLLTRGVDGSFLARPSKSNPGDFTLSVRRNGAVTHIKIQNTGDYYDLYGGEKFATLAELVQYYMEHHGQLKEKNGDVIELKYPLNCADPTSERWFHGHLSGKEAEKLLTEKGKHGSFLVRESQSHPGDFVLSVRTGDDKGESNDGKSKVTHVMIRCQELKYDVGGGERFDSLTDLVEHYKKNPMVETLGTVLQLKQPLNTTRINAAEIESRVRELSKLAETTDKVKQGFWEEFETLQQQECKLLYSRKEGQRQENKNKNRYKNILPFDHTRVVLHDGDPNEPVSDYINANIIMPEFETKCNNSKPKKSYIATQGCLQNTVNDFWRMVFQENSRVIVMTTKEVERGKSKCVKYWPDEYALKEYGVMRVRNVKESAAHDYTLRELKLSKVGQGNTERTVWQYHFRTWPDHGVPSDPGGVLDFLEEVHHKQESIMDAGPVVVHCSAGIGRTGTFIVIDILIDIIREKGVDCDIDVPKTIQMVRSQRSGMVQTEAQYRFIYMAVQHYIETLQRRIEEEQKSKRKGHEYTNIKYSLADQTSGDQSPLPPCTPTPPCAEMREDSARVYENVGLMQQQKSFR
Kind of assay: Phosphatase profile: SHP2 inhibition (DIFMUP fluorescence). On the procedure: A) SHP1 and SHP2: SHP1 and SHP2 adenovirus vectors were prepared. SHP1 and SHP2 were independently over expressed, isolated and purified using FPLC. Enzyme was diluted to 1000-1400 FU/min. Enzyme (45 μL) was uniformLy plated in 96 well plates and treated with serial dilutions of compound (2 μL in DMSO). Compound and enzyme are allowed to incubate for 30 minutes at RT before the addition of DIFMUP (100 μM). The solutions are allowed to incubate at RT for 10 minutes prior to reading the fluorescence, to provide IC50 curves using LSW Data Analysis Tool Box (MDL).

The target of assay [3] is T3, LAR (Homo sapiens, UniProt P10586).
T3 construct: purchased BIOMOL Research Laboratories, Inc
T3 sequence (P10586 30-1907, species assumed): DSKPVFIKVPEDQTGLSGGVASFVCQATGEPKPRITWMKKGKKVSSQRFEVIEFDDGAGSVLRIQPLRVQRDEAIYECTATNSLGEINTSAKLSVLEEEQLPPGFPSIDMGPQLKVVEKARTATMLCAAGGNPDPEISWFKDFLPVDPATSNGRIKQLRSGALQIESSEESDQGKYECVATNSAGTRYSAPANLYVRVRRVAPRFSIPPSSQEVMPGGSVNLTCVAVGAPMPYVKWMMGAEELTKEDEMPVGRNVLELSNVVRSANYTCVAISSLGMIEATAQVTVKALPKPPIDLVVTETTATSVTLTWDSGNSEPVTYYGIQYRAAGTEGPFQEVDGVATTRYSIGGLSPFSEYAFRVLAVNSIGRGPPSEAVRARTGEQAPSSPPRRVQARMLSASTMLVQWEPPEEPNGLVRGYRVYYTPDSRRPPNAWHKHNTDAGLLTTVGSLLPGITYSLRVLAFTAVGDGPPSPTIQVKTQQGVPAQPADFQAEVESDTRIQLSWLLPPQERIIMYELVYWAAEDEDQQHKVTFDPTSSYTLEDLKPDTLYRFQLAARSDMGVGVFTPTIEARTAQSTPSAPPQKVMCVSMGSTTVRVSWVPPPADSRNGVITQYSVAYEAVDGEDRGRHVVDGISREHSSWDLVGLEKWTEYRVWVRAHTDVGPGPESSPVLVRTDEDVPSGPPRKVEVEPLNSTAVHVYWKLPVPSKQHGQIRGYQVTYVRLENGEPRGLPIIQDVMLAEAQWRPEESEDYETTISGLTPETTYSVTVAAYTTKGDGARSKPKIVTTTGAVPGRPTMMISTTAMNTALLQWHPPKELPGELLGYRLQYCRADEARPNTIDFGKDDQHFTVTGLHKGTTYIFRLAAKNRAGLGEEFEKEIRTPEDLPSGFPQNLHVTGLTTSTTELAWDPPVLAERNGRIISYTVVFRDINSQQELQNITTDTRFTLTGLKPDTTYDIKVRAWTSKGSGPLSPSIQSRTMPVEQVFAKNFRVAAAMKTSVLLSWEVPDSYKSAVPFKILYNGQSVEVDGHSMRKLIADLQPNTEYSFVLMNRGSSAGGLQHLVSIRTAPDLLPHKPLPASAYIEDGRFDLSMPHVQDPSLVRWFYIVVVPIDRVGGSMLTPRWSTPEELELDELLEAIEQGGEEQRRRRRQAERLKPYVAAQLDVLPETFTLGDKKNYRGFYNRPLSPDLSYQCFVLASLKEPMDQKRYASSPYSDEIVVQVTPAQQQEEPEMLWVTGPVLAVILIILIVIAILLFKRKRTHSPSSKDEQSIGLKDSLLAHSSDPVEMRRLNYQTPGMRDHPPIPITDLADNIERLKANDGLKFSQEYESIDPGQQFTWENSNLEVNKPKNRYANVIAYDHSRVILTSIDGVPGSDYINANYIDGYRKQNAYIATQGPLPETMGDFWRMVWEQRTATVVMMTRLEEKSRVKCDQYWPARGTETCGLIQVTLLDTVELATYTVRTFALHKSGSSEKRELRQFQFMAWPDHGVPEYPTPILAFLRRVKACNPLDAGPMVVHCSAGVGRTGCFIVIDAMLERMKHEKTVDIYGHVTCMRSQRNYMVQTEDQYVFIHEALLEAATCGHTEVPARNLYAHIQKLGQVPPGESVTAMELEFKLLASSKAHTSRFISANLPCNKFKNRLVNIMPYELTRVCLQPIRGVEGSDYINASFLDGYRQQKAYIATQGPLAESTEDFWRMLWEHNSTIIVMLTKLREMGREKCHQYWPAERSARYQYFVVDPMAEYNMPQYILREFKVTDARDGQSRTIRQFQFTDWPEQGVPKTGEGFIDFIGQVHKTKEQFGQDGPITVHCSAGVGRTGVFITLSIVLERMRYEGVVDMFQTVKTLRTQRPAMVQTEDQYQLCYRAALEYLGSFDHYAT
In words: LAR Assay. On the procedure:
C) LAR Assay: Inhibition of the phosphatase LAR was performed according to reported procedures (Cho, H. Biochemistry 1991, 30, 6210; 1992, 31, 133; Cho, H. Prot. Sci., 1993, 2, 977). LAR was purchased from BIOMOL Research Laboratories, Inc.

The term IC50 denotes the concentration that inhibits the measured activity by half. A lower IC50 goes with inhibition by little substance. As for `O=c1oc2c(Sc3ccc4ccccc4c3)cc(O)cc2s1` [Compound 23, 5-Hydroxy-7-((2-naphthy)sulfanyl)benzo[1,3]oxathiol-2-one], in assay [1], the “C45 IC50” value was “no inh”. In addition, the IC50 in assay [2] is 16.5 µM; in assay [3], greater than 100 µM.

As to `O=c1oc2c(Sc3ccc4ccccc4c3)cc(O)c(Sc3ccc4ccccc4c3)c2s1` [Compound 30, 4,7-Bis-((2-naphthyl)sulfanyl)-5-hydroxybenzo[1,3]oxathiol-2-one], in assay [1], the “C45 IC50” value is recorded as “no inh”. Besides, the IC50 in assay [2] was found to be 18.4 µM. Also, in assay [3], the “LAR IC50” value is listed as “no inh”.
